According to US7683163B2, “Colchicoside analogues” (priority 2003, dated 2010):

Assays:
[1] = acute toxicity (DL50 i.p.); conditions: for DL50/DE50: toxic/active dose ratio
[2] = system: Swiss male mice; experiment: rota-rod test (muscle relaxant activity); format: in vivo; conditions: for Resistance time (sec. M ± S.E.): thirty minutes before the test
Method: Muscle relaxant activity was evaluated with the rota-rod test. Swiss male mice weighing 20-25 g were treated intraperitoneally with the β-D isomer of compound (Ib) at doses of 1-3-10 mg/kg, thirty minutes before the test. Relaxant activity on striated muscles was evaluated by testing the resistance of the mice to the stimuli of a rotating plane revolving at increasing rate, from 2 to 50 r.p.m.

[3] = rota-rod, mice, dose 1 mg/Kg i.p.
[4] = rota-rod, mice, dose 3 mg/Kg i.p.
[5] = rota-rod, mice, dose 10 mg/Kg i.p.
[6] = rota-rod, mice, i.p., Table 1, with limits in brackets

Row | SMILES | DL50 ([1]; Table 2) | DL50 ([1]; i.p.) | DL50/DE50 ([1]; i.p.) | DE50 ([2]; Table 2) | muscle relaxant activity compared with thiocolchicoside ([2]; rota-rod, mice, 1-3-10 mg/kg i.p.) | Resistance time (sec. M ± S.E.) [2, 3] | Resistance time (sec. M ± S.E.) [2, 4] | Resistance time (sec. M ± S.E.) [2, 5] | DE50 [2, 6]
1 | COc1c(O[C@@H]2OC[C@@H](O)[C@H](O)[C@H]2O)cc2c(c1OC)-c1ccc(SC)c(=O)cc1C(NC(C)=O)CC2 (single isomer, unassigned) [Compound (Ib) isomer β-D, 3-O-β-D-xylopyranosyl-3-O-demethylthiocolchicine] | 80 mg/kg i.p. | 80 (63-94) mg/kg | 35.87 | 2.23 mg/kg i.p. | more active than thiocolchicoside | 270 ± 19 s | 175 ± 14 s | 80 ± 10 s | 2.23 (1.84-2.82) mg/Kg
2 | COc1c(O[C@@H]2O[C@H](CO)[C@@H](O)[C@H](O)[C@H]2O)cc2c(c1OC)-c1ccc(SC)c(=O)cc1[C@@H](NC(C)=O)CC2 [Thiocolchicoside isomer β-D, 3-demethyl-thiocolchicine glucoside, reference compound] | 20 mg/kg i.p. | 20 mg/kg | 4.47 | 4.47 mg/kg i.p. | – | 345 ± 20 s | 265 ± 17 s | 110 ± 12 s | 4.47 (3.16-7.01) mg/Kg
